Data: PubChem BioAssay AID1259407 (Chemical Carcinogenesis Research Information System (CCRIS), 2018)
The source made the active and inactive calls. How the calls were made is not given here.

Tested on: CCRIS mutagenicity, Ames/micronucleus/aberration tests
Assay: CCRIS mutagenicity studies
[1] = Test System: AMES SALMONELLA TYPHIMURIUM, Strain/Indicator: TA98(1,8-DNP6), Metabolic Activation: NONE, Method: STANDARD PLATE
[2] = Test System: AMES SALMONELLA TYPHIMURIUM, Strain/Indicator: TA98(NR), Metabolic Activation: NONE, Method: STANDARD PLATE
[3] = Test System: AMES SALMONELLA TYPHIMURIUM, Strain/Indicator: TA98, Metabolic Activation: NONE, Method: STANDARD PLATE
[4] = Test System: AMES SALMONELLA TYPHIMURIUM, Strain/Indicator: TA100, Metabolic Activation: NONE, Method: PREINCUBATION
[5] = Test System: AMES SALMONELLA TYPHIMURIUM, Strain/Indicator: TA100, Metabolic Activation: RAT, LIVER, S-9, AROCLOR 1254, Method: PREINCUBATION
[6] = Test System: AMES SALMONELLA TYPHIMURIUM, Strain/Indicator: TA98, Metabolic Activation: NONE, Method: PREINCUBATION
[7] = Test System: AMES SALMONELLA TYPHIMURIUM, Strain/Indicator: TA102, Metabolic Activation: NONE, Method: PREINCUBATION
[8] = Test System: AMES SALMONELLA TYPHIMURIUM, Strain/Indicator: TA102, Metabolic Activation: RAT, LIVER, S-9, AROCLOR 1254, Method: PREINCUBATION
[9] = Test System: AMES SALMONELLA TYPHIMURIUM, Strain/Indicator: TA100, Metabolic Activation: NONE
[10] = Test System: Ames Salmonella typhimurium, Strain/Indicator: TA98, Metabolic Activation: None, Method: Preincubation
[11] = Test System: Ames Salmonella typhimurium, Strain/Indicator: TA100, Metabolic Activation: None, Method: Preincubation
[12] = Test System: Ames Salmonella typhimurium, Strain/Indicator: TA1535, Metabolic Activation: None, Method: Preincubation

**Q.** For `O=Cc1ccc([N+](=O)[O-])o1`, which mutagenic call [1] is on record?
**A.** active; positive

**Q.** And the mutagenic call (Test System: AMES SALMONELLA TYPHIMURIUM, Strain/Indicator: TA98(1,8-DNP6), Metabolic Activation: RAT, LIVER, S-9, 3-METHYLCHOLANTHRENE, Method: STANDARD PLATE)?
**A.** active; positive

**Q.** What about the mutagenic call [2] of the same compound?
**A.** active; positive

**Q.** What about the mutagenic call (Test System: AMES SALMONELLA TYPHIMURIUM, Strain/Indicator: TA98(NR), Metabolic Activation: RAT, LIVER, S-9, 3-METHYLCHOLANTHRENE, Method: STANDARD PLATE) of the same compound?
**A.** active; positive

**Q.** What about the mutagenic call [3] of the same compound?
**A.** active; positive

**Q.** And the mutagenic call (Test System: AMES SALMONELLA TYPHIMURIUM, Strain/Indicator: TA98, Metabolic Activation: RAT, LIVER, S-9, 3-METHYLCHOLANTHRENE, Method: STANDARD PLATE)?
**A.** active; positive

**Q.** What about the mutagenic call (Test System: AMES SALMONELLA TYPHIMURIUM, Strain/Indicator: TA100(1,8-DNP6), Metabolic Activation: NONE, Method: PREINCUBATION) of the same compound?
**A.** active; positive

**Q.** And the mutagenic call (Test System: AMES SALMONELLA TYPHIMURIUM, Strain/Indicator: TA100(1,8-DNP6), Metabolic Activation: RAT, LIVER, S-9, AROCLOR 1254, Method: PREINCUBATION)?
**A.** active; positive

**Q.** And the mutagenic call (Test System: AMES SALMONELLA TYPHIMURIUM, Strain/Indicator: TA100(NR), Metabolic Activation: NONE, Method: PREINCUBATION)?
**A.** active; positive

**Q.** And the mutagenic call (Test System: AMES SALMONELLA TYPHIMURIUM, Strain/Indicator: TA100(NR), Metabolic Activation: RAT, LIVER, S-9, AROCLOR 1254, Method: PREINCUBATION)?
**A.** active; positive

**Q.** And the mutagenic call [4]?
**A.** active; positive

**Q.** What about the mutagenic call [5] of the same compound?
**A.** active; positive

**Q.** For `OCC1CCCO1` (stereo not drawn), which mutagenic call [6] is on record?
**A.** inactive; negative

**Q.** And the mutagenic call (Test System: AMES SALMONELLA TYPHIMURIUM, Strain/Indicator: TA98, Metabolic Activation: RAT, LIVER, S-9, AROCLOR 1254, Method: PREINCUBATION)?
**A.** inactive; negative

**Q.** What about the mutagenic call [4] of the same compound?
**A.** inactive; negative

**Q.** What about the mutagenic call [5] of the same compound?
**A.** inactive; negative

**Q.** What about the mutagenic call [7] of the same compound?
**A.** inactive; negative

**Q.** What about the mutagenic call [8] of the same compound?
**A.** inactive; negative

**Q.** Which mutagenic call [9] does the source give for `CC(=O)OO[N+](=O)[O-]` here?
**A.** active; positive

**Q.** What about the mutagenic call (Test System: AMES SALMONELLA TYPHIMURIUM, Strain/Indicator: TA100, Metabolic Activation: RAT, LIVER, S-9, AROCLOR 1254) of the same compound?
**A.** active; positive

**Q.** For `CC(=O)Nc1ccc2ncccc2c1`, which mutagenic call [6] is on record?
**A.** inactive; negative

**Q.** What about the mutagenic call (Test System: AMES SALMONELLA TYPHIMURIUM, Strain/Indicator: TA98, Metabolic Activation: RAT, LIVER, S-9, KANECHLOR 500, Method: PREINCUBATION) of the same compound?
**A.** inactive; negative

**Q.** What about the mutagenic call [4] of the same compound?
**A.** inactive; negative

**Q.** And the mutagenic call (Test System: AMES SALMONELLA TYPHIMURIUM, Strain/Indicator: TA100, Metabolic Activation: RAT, LIVER, S-9, KANECHLOR 500, Method: PREINCUBATION)?
**A.** active; positive

**Q.** What does the source list for `C(=NC1CCCCC1)=NC1CCCCC1`?
**A.** mutagenic call (End Point: In vivo micronucleus, Test System: Bone marrow polychromatic erythrocytes, Species: Rat, Strain/Sex: F344/N/Male, Route: Intraperitoneal): inactive; negative; mutagenic call (End Point: In vivo micronucleus, Test System: Peripheral blood normochromatic erythrocytes, Species: Mouse, Strain/Sex: B6C3F1/ Female, Route: Dermal): active; positive (significant increase in the frequency only at 3 mg/kg (p=0.003)); mutagenic call (End Point: In vivo micronucleus, Test System: Peripheral blood normochromatic erythrocytes, Species: Mouse, Strain/Sex: B6C3F1/ Male, Route: Dermal): active; positive (results of trend test significant (p=0.003 but increase in frequency o; mutagenic call (Test System: Ames Salmonella typhimurium, Strain/Indicator: TA97, Metabolic Activation: Hamster, liver S-9, Aroclor 1254, 10 and 30%, Method: Preincubation): inactive; negative; mutagenic call (Test System: Ames Salmonella typhimurium, Strain/Indicator: TA97, Metabolic Activation: None, Method: Preincubation): inactive; negative; mutagenic call (Test System: Ames Salmonella typhimurium, Strain/Indicator: TA97, Metabolic Activation: Rat, liver S-9, Aroclor 1254, 10 and 30%, Method: Preincubation): inactive; negative; mutagenic call (Test System: Ames Salmonella typhimurium, Strain/Indicator: TA98, Metabolic Activation: Hamster, liver S-9, Aroclor 1254, 10 and 30%, Method: Preincubation): inactive; negative; mutagenic call [10]: inactive; negative; mutagenic call (Test System: Ames Salmonella typhimurium, Strain/Indicator: TA98, Metabolic Activation: Rat, liver S-9, Aroclor 1254, 10 and 30%, Method: Preincubation): inactive; negative; mutagenic call (Test System: Ames Salmonella typhimurium, Strain/Indicator: TA100, Metabolic Activation: Hamster, liver S-9, Aroclor 1254, 10 and 30%, Method: Preincubation): inactive; negative; mutagenic call [11]: inactive; negative; mutagenic call (Test System: Ames Salmonella typhimurium, Strain/Indicator: TA100, Metabolic Activation: Rat, liver S-9, Aroclor 1254, 10 and 30%, Method: Preincubation): inactive; negative; mutagenic call (Test System: Ames Salmonella typhimurium, Strain/Indicator: TA1535, Metabolic Activation: Hamster, liver, S-9, Aroclor 1254, 10 and 30%, Method: Preincubation): inactive; negative; mutagenic call [12]: inactive; negative; mutagenic call (Test System: Ames Salmonella typhimurium, Strain/Indicator: TA1535, Metabolic Activation: Rat, liver, S-9, Aroclor 1254, 10 and 30%, Method: Preincubation): inactive; negative

**Q.** Which mutagenic call (Test System: AMES SALMONELLA TYPHIMURIUM, Strain/Indicator: TA98 (1,8-DNP6), Metabolic Activation: NONE, Method: STANDARD PLATE) does the source give for `O=Nc1ccc2ccc3cccc4ccc1c2c34` here?
**A.** active; positive

**Q.** And the mutagenic call [1]?
**A.** active; positive

**Q.** And the mutagenic call (Test System: AMES SALMONELLA TYPHIMURIUM, Strain/Indicator: TA98 (NR), Metabolic Activation: NONE, Method: STANDARD PLATE)?
**A.** active; positive

**Q.** And the mutagenic call [2]?
**A.** active; positive

**Q.** And the mutagenic call [3]?
**A.** active; positive

**Q.** And the mutagenic call (Test System: CHINESE HAMSTER OVARY, Strain/Indicator: CHO (HGPRT), Metabolic Activation: NONE, Method: SUSPENSION)?
**A.** active; positive

**Q.** And the mutagenic call (Test System: CHINESE HAMSTER OVARY, Strain/Indicator: CHO-K1-BH4 (HGPRT), Metabolic Activation: NONE, Method: SUSPENSION)?
**A.** active; positive

**Q.** What about the mutagenic call (Test System: CHINESE HAMSTER OVARY, Strain/Indicator: CHO/HGPRT, Metabolic Activation: NONE) of the same compound?
**A.** active; positive

**Q.** With `O=C1NCCN1c1nccs1` as the compound, how does the mutagenic call [3] read?
**A.** active; positive

**Q.** With `COc1ccc(CC2CO2)cc1OC` (stereo not drawn) as the compound, how does the mutagenic call [4] read?
**A.** active; positive

**Q.** What about the mutagenic call (Test System: AMES SALMONELLA TYPHIMURIUM, Strain/Indicator: TA100, Metabolic Activation: NONE, Method: STANDARD PLATE) of the same compound?
**A.** active; positive

**Q.** And the mutagenic call (Test System: AMES SALMONELLA TYPHIMURIUM, Strain/Indicator: TA1535, Metabolic Activation: NONE, Method: PREINCUBATION)?
**A.** active; positive

**Q.** What about the mutagenic call (Test System: AMES SALMONELLA TYPHIMURIUM, Strain/Indicator: TA1535, Metabolic Activation: NONE, Method: STANDARD PLATE) of the same compound?
**A.** active; positive

**Q.** Which results are given for `CCCCCC(=O)OCC`?
**A.** mutagenic call (Test System: AMES SALMONELLA TYPHIMURIUM, Strain/Indicator: TA97, Metabolic Activation: NONE, Method: PREINCUBATION): inactive; negative; mutagenic call (Test System: AMES SALMONELLA TYPHIMURIUM, Strain/Indicator: TA97, Metabolic Activation: RAT, LIVER, S-9, AROCLOR 1254, Method: PREINCUBATION): inactive; negative; mutagenic call [7]: inactive; negative; mutagenic call [8]: inactive; negative

**Q.** For `O=C(O)[C@@H]1Cc2c([nH]c3ccccc23)[C@@H]([C@H]2CCNC2=S)N1`, which mutagenic call (Test System: AMES SALMONELLA TYPHIMURIUM, Strain/Indicator: TA98, Metabolic Activation: NONE) is on record?
**A.** inactive; negative

**Q.** What about the mutagenic call (Test System: AMES SALMONELLA TYPHIMURIUM, Strain/Indicator: TA98, Metabolic Activation: S-9) of the same compound?
**A.** active; positive

**Q.** And the mutagenic call [9]?
**A.** inactive; negative

**Q.** What about the mutagenic call (Test System: AMES SALMONELLA TYPHIMURIUM, Strain/Indicator: TA100, Metabolic Activation: S-9) of the same compound?
**A.** inactive; negative

**Q.** How did the mutagenic call [10] turn out when `CN(C)c1ccc(C(=C2C=CC(=[N+](C)C)C=C2)c2ccccc2Cl)cc1` was run?
**A.** inactive; negative

**Q.** What about the mutagenic call (Test System: Ames Salmonella typhimurium, Strain/Indicator: TA98, Metabolic Activation: Rat, Liver, S-9, Aroclor 1254, Method: Preincubation) of the same compound?
**A.** inactive; negative

**Q.** What about the mutagenic call [11] of the same compound?
**A.** inactive; negative

**Q.** What about the mutagenic call (Test System: Ames Salmonella typhimurium, Strain/Indicator: TA100, Metabolic Activation: Rat, Liver, S-9, Aroclor 1254, Method: Preincubation) of the same compound?
**A.** inactive; negative

**Q.** And the mutagenic call (Test System: Ames Salmonella typhimurium, Strain/Indicator: TA102, Metabolic Activation: None, Method: Preincubation)?
**A.** inactive; negative

**Q.** And the mutagenic call (Test System: Ames Salmonella typhimurium, Strain/Indicator: TA102, Metabolic Activation: Rat, Liver, S-9, Aroclor 1254, Method: Preincubation)?
**A.** inactive; negative

**Q.** What about the mutagenic call [12] of the same compound?
**A.** inactive; negative

**Q.** What about the mutagenic call (Test System: Ames Salmonella typhimurium, Strain/Indicator: TA1535, Metabolic Activation: Rat, Liver, S-9, Aroclor 1254, Method: Preincubation) of the same compound?
**A.** inactive; negative
